Reference: ChEMBL document CHEMBL4715866, “A Chemical Probe for Dark Kinase STK17B Derives Its Potency and High Selectivity through a Unique P-Loop Conformation” (J Med Chem, 2020)
≈ marks a conversion by molar mass, not a printed value.

Assays:
[1] = target: T1, Serine/threonine-protein kinase pim-2 (Homo sapiens, UniProt Q9P1W9); assay: Binding affinity to human PIM2 assessed as displacement of immobilized ligand by KINOMEscan scanMAX assay relative to control
Wee1-like protein kinase [2] = target: T2, Wee1-like protein kinase (Homo sapiens, UniProt P30291); assay: Binding affinity to human WEE1 assessed as displacement of immobilized ligand by KINOMEscan scanMAX assay relative to control
T2 sequence (P30291 whole entry): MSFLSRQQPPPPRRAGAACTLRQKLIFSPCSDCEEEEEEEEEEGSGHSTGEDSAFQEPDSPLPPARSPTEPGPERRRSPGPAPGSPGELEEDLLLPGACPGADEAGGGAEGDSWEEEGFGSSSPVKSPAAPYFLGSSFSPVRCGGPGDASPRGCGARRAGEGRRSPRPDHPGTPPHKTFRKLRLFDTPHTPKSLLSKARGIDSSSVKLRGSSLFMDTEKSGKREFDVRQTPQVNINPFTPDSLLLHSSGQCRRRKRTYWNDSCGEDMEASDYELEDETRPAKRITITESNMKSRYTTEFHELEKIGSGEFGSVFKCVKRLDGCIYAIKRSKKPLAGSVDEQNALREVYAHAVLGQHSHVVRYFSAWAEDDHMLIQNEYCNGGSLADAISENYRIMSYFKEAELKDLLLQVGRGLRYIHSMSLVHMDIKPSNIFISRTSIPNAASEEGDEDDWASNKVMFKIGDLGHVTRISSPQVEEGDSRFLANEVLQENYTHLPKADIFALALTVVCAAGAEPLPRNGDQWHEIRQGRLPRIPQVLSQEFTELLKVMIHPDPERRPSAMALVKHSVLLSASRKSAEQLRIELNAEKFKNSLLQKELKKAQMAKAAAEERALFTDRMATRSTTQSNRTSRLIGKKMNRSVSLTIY

[3] = target: T3, Serine/threonine-protein kinase 17B (Homo sapiens, UniProt O94768); assay: Binding affinity to human STK17B assessed as displacement of immobilized ligand by KINOMEscan scanMAX assay relative to control
T3 sequence (O94768 whole entry): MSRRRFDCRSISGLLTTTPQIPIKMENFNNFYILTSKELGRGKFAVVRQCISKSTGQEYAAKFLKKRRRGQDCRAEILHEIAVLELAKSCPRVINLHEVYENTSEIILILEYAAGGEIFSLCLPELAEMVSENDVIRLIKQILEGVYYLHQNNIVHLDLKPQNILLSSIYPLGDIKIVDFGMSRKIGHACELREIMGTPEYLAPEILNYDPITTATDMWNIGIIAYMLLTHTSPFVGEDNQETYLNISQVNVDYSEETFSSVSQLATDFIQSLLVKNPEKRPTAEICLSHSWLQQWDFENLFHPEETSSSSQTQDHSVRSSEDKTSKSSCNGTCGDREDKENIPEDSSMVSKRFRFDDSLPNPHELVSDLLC

[4] = target: T4, Calcium/calmodulin-dependent protein kinase kinase 1 (Homo sapiens, UniProt Q8N5S9); assay: Binding affinity to human CAMKK1 assessed as displacement of immobilized ligand by KINOMEscan scanMAX assay relative to control
T4 sequence (Q8N5S9 whole entry): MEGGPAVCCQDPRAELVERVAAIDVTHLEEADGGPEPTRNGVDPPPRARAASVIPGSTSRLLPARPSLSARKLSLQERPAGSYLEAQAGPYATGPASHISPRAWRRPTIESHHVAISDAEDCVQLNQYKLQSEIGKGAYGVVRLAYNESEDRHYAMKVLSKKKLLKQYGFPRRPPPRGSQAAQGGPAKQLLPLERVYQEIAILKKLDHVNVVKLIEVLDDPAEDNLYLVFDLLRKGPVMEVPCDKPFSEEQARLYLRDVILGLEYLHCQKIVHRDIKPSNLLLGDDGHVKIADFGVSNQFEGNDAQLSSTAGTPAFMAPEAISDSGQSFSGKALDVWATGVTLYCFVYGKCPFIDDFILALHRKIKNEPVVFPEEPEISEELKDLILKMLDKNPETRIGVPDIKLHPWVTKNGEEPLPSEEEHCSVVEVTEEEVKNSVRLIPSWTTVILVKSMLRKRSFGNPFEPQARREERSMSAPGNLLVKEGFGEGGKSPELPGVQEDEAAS

[5] = target: T5, Serine/threonine-protein kinase 17A (Homo sapiens, UniProt Q9UEE5); assay: Inhibition of human STK17A in presence of ATP at Km level
T5 sequence (Q9UEE5 whole entry): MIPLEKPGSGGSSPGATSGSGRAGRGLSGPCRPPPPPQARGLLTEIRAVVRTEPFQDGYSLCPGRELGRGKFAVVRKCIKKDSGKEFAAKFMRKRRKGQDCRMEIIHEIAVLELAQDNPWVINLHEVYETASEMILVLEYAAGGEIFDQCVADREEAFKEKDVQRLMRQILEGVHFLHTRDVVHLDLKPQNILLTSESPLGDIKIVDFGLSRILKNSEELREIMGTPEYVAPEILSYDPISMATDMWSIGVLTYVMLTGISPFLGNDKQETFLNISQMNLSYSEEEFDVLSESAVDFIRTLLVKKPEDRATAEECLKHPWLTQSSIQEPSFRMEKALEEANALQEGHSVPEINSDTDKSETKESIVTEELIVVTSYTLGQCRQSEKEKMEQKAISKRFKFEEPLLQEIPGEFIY

[6] = target: T6, Serine/threonine-protein kinase 38-like (Homo sapiens, UniProt Q9Y2H1); assay: Inhibition of human STK38L in presence of ATP at Km level
T6 sequence (Q9Y2H1 whole entry): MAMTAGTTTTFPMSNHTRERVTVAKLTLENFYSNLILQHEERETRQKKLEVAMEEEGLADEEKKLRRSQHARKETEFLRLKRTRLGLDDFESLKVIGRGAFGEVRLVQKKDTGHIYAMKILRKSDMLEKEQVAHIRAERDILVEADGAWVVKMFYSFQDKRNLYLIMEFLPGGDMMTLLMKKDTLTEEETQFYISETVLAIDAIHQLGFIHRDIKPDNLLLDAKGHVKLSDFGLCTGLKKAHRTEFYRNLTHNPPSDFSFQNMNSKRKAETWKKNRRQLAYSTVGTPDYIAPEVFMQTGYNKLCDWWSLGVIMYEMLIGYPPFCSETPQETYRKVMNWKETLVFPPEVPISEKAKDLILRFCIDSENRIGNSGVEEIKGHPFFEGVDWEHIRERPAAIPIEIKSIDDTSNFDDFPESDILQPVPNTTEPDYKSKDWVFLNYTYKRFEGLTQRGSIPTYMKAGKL

[7] = target: T7, Hepatocyte growth factor receptor (Homo sapiens, UniProt P08581); assay: Inhibition of human MET in presence of ATP at Km level
T7 sequence (P08581 whole entry): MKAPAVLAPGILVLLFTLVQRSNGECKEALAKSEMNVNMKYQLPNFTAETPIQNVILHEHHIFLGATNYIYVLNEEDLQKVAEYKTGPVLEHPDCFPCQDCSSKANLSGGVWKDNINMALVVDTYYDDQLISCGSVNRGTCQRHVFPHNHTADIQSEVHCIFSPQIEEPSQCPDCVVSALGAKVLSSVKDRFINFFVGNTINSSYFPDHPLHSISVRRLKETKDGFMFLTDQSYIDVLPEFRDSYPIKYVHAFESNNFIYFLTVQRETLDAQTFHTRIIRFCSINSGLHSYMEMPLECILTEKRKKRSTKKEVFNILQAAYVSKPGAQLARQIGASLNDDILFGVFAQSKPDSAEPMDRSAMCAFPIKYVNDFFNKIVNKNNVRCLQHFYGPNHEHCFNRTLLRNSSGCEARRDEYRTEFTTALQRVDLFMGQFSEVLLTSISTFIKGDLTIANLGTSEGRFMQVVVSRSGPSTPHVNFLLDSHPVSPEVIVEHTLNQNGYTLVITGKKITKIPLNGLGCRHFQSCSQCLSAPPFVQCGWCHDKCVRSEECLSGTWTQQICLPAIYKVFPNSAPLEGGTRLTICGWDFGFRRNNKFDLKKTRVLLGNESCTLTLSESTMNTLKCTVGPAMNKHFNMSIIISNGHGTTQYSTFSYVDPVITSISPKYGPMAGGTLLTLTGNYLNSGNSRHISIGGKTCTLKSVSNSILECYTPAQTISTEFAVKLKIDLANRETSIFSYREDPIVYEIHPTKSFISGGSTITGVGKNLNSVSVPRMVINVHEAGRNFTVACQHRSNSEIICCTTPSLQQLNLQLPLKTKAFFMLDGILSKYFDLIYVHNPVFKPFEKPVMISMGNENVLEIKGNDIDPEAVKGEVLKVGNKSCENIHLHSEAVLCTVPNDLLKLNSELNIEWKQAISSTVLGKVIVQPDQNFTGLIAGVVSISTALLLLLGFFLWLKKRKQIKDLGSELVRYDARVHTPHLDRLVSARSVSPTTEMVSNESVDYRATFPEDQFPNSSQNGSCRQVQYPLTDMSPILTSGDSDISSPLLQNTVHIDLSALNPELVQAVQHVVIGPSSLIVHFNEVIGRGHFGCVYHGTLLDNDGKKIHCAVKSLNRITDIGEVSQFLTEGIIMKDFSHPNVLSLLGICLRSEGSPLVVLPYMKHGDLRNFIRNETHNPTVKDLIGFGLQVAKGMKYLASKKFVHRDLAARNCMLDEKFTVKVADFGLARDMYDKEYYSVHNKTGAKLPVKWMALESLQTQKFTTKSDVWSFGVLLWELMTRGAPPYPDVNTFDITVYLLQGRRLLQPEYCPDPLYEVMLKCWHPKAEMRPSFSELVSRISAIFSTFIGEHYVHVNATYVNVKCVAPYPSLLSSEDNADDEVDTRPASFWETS

[8] = target: T8, Serine/threonine-protein kinase Nek6 (Homo sapiens, UniProt Q9HC98); assay: Binding affinity to human NEK6 assessed as displacement of immobilized ligand by KINOMEscan scanMAX assay relative to control
T8 sequence (Q9HC98 whole entry): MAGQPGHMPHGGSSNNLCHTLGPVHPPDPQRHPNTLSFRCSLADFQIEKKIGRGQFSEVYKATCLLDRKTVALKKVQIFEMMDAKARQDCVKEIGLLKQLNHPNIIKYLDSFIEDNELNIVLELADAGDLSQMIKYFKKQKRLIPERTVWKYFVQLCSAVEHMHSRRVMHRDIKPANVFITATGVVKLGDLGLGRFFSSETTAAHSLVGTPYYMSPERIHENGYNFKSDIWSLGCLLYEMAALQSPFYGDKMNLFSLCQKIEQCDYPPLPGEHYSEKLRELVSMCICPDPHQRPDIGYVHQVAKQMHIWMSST

Aurora kinase B [9] = target: T9, Aurora kinase B (Homo sapiens, UniProt Q96GD4); assay: Binding affinity to human AURKB assessed as displacement of immobilized ligand by KINOMEscan scanMAX assay relative to control
T9 sequence (Q96GD4 whole entry): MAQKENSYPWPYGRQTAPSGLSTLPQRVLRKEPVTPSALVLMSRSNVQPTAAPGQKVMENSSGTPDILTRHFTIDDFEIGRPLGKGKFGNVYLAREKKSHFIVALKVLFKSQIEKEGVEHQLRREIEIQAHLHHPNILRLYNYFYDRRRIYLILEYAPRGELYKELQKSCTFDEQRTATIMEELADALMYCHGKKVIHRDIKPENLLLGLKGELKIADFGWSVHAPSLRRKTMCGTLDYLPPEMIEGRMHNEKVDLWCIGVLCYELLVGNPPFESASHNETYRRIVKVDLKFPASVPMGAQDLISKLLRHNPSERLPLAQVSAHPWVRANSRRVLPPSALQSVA

Aurora kinase B [10] = target: T9, Aurora kinase B; assay: Binding affinity to human AURKB incubated for 2 hrs by nano-BRET assay based cellular target engagement assay
[11] = Kinetic solubility in pH 7.4 PBS; type: physicochemical; conditions: read-out: Kinetic_solubility
[12] = target: T3, Serine/threonine-protein kinase 17B; assay: Inhibition of N-terminal His-tagged STK17B kinase domain (25 to 329 residues) (unknown origin) expressed in Escherichia coli incubated for 90 mins by Kinase seeker split luciferase assay
[13] = target: T7, Hepatocyte growth factor receptor; assay: Binding affinity to human MET assessed as displacement of immobilized ligand by KINOMEscan scanMAX assay relative to control
[14] = target: T10, Calcium/calmodulin-dependent protein kinase kinase 2 (Homo sapiens, UniProt Q96RR4); assay: Binding affinity to human CAMKK2 assessed as displacement of immobilized ligand by KINOMEscan scanMAX assay relative to control
T10 sequence (Q96RR4 whole entry): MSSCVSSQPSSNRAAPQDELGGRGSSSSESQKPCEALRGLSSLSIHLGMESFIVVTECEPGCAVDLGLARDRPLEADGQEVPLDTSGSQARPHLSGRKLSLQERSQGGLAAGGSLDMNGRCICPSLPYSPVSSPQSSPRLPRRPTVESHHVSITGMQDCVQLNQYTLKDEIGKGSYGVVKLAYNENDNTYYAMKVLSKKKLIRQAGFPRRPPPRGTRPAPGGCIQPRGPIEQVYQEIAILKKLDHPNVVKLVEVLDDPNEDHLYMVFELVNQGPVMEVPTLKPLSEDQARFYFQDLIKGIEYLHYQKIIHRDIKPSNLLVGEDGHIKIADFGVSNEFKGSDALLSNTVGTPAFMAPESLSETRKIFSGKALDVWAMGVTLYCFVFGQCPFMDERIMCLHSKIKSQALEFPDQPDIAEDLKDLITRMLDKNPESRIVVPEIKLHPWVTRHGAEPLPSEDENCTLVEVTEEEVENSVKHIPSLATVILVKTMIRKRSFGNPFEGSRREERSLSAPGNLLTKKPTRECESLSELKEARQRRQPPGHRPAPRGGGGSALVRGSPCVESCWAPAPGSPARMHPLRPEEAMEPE

[15] = Stability in mouse liver microsomes assessed as compound remaining at 0.1 mM in presence of NADPH regeneration system after 30 mins by LC-MS/MS analysis; type: ADME, Microsome; conditions: read-out: Stabilty
[16] = target: T3, Serine/threonine-protein kinase 17B
[17] = target: T6, Serine/threonine-protein kinase 38-like; assay: Binding affinity to human STK38L assessed as displacement of immobilized ligand by KINOMEscan scanMAX assay relative to control
[18] = target: T10, Calcium/calmodulin-dependent protein kinase kinase 2; assay: Binding affinity to human CAMKK2 incubated for 2 hrs by nano-BRET assay based cellular target engagement assay
[19] = target: T5, Serine/threonine-protein kinase 17A; assay: Binding affinity to human STK17A assessed as displacement of immobilized ligand by KINOMEscan scanMAX assay relative to control
[20] = target: T10, Calcium/calmodulin-dependent protein kinase kinase 2; assay: Inhibition of human CAMKK2 in presence of ATP at Km level
[21] = target: T4, Calcium/calmodulin-dependent protein kinase kinase 1; assay: Inhibition of human CAMKK1 in presence of ATP at Km level
[22] = target: T6, Serine/threonine-protein kinase 38-like; assay: Binding affinity to human STK38L incubated for 2 hrs by nano-BRET assay based cellular target engagement assay
[23] = target: T1, Serine/threonine-protein kinase pim-2; assay: Inhibition of human PIM2 in presence of ATP at Km level
[24] = target: T8, Serine/threonine-protein kinase Nek6; assay: Inhibition of human NEK6 in presence of ATP at Km level
Aurora kinase B [25] = target: T9, Aurora kinase B; assay: Inhibition of human AURKB in presence of ATP at Km level
[26] = target: T5, Serine/threonine-protein kinase 17A; assay: Binding affinity to human STK17A incubated for 2 hrs by nano-BRET assay based cellular target engagement assay
[27] = target: T3, Serine/threonine-protein kinase 17B; assay: Binding affinity to N-terminal His-tagged STK17B kinase domain (25 to 329 residues) (unknown origin) expressed in Escherichia coli by KINOMEscan scanMAX assay
[28] = target: T3, Serine/threonine-protein kinase 17B; assay: Inhibition of human STK17B in presence of ATP at Km level
Wee1-like protein kinase [29] = target: T2, Wee1-like protein kinase; assay: Inhibition of human WEE1 in presence of ATP at Km level

T1 sequence (Q9P1W9 whole entry): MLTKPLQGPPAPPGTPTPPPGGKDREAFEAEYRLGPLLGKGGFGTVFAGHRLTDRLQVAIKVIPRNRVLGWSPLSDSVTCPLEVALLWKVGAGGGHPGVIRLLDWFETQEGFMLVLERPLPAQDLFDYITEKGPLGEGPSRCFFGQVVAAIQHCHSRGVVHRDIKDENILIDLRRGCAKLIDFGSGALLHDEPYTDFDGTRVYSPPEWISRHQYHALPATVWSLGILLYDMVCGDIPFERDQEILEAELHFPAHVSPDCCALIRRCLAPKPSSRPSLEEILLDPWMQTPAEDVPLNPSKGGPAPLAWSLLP

O=C(O)CSc1ncnc2cc(-c3cc4ccccc4s3)sc12
Kd [1]: 1500 nM
Kd (Wee1-like protein kinase [2]): > 10000 nM
Kd [3]: 5.6 nM
Kd [4]: 49 nM
IC50 [5]: 4700 nM
IC50 [6]: > 10000 nM
IC50 [7]: > 10000 nM
Kd [8]: > 10000 nM
Kd (Aurora kinase B [9]): 110 nM
IC50 (Aurora kinase B [10]): > 10000 nM
solubility kinetic [11]: 5 µg/mL (≈ 13.9 µM)
IC50 [12]: 34 nM
Kd [13]: > 10000 nM
Kd [14]: 21 nM
remaining at 0.5 h, 100 µM [15]: 63%
IC50 [16]: 190 nM
Kd [17]: > 10000 nM
IC50 [18]: 2400 nM
Kd [19]: 440 nM
IC50 [20]: > 10000 nM
IC50 [21]: 5200 nM
IC50 [22]: > 10000 nM
IC50 [23]: > 10000 nM
IC50 [24]: > 10000 nM
IC50 (Aurora kinase B [25]): 8900 nM
IC50 [26]: > 10000 nM
Kd [27]: 5.6 nM
IC50 [28]: 34 nM
IC50 (Wee1-like protein kinase [29]): > 10000 nM
